Organism: Homo sapiens
Assay: Hepatic clearance in human
Conditions: in vivo

Compound	CL
CNS(=O)(=O)CCc1ccc2[nH]cc(C3CCN(C)CC3)c2c1	3.5 mL/min/kg
N=C(N)c1ccc(CNC(=O)[C@@H]2CCN2C(=O)[C@H](NCC(=O)O)C2CCCCC2)cc1	0.3 mL/min/kg
Nc1ncnc2c1ncn2CCOCP(=O)(O)O [ADEFOVIR]	0.4 mL/min/kg
C=CCc1ccccc1OCC(O)CNC(C)C (stereo not given) [ALPRENOLOL]	14.4 mL/min/kg
CC1(C)S[C@@H]2[C@H](NC(=O)[C@H](N)c3ccc(O)cc3)C(=O)N2[C@H]1C(=O)O [AMOXICILLIN]	1.4 mL/min/kg
CC1(C)S[C@@H]2[C@H](NC(=O)[C@H](N)c3ccccc3)C(=O)N2[C@H]1C(=O)O [AMPICILLIN]	1.6 mL/min/kg
CC(C)NCC(O)COc1ccc(COCCOC(C)C)cc1 (stereo not given) [BISOPROLOL]	1.4 mL/min/kg
CCCC1O[C@@H]2C[C@H]3[C@@H]4CCC5=CC(=O)C=C[C@]5(C)[C@H]4[C@@H](O)C[C@]3(C)[C@]2(C(=O)CO)O1 (stereo not given in full) [BUDESONIDE]	19 mL/min/kg
COc1cc(OC)c(C(=O)CCCN2CCCC2)c(OC)c1 [BUFLOMEDIL]	4.3 mL/min/kg
COc1ccccc1OCCNCC(O)COc1cccc2[nH]c3ccccc3c12 (stereo not given) [CARVEDILOL]	7.7 mL/min/kg
CC1=C(C(=O)O)N2C(=O)[C@@H](NC(=O)[C@H](N)c3ccc(O)cc3)[C@H]2SC1 [CEFADROXIL]	0.2 mL/min/kg
CO/N=C(\C(=O)N[C@@H]1C(=O)N2C(C(=O)O)=C(COC(N)=O)CS[C@H]12)c1ccco1 [CEFUROXIME]	0.1 mL/min/kg
CC1=C(C(=O)O)N2C(=O)[C@@H](NC(=O)[C@H](N)C3=CCC=CC3)[C@H]2SC1 [CEPHRADINE]	0.2 mL/min/kg
CCN(CC)CCCC(C)Nc1ccnc2cc(Cl)ccc12 (stereo not given) [CHLOROQUINE]	1.8 mL/min/kg
Nc1ccn(C[C@@H](CO)OCP(=O)(O)O)c(=O)n1.O.O [CIDOFOVIR]	0.3 mL/min/kg
c1ccc(C2(c3ccccc3)CC2C2=NCCN2)cc1 (stereo not given) [CIFENLINE]	4.4 mL/min/kg
O=C(O)[C@H]1/C(=C/CO)O[C@@H]2CC(=O)N21 [CLAVULANIC ACID]	1.8 mL/min/kg
NC1CCN(c2c(F)cc3c(=O)c(C(=O)O)cn(C4CC4)c3c2Cl)C1 (stereo not given) [CLINAFLOXACIN]	1.5 mL/min/kg
Cc1onc(-c2c(Cl)cccc2Cl)c1C(=O)N[C@@H]1C(=O)N2[C@@H]1SC(C)(C)[C@@H]2C(=O)O [DICLOXACILLIN]	0.8 mL/min/kg
O=c1[nH]cnc2c1ncn2[C@H]1CC[C@@H](CO)O1 [DIDANOSINE]	4.2 mL/min/kg
COc1ccc([C@@H]2Sc3ccccc3N(CCN(C)C)C(=O)[C@@H]2OC(C)=O)cc1 [DILTIAZEM]	3.8 mL/min/kg
C[C@H]1O[C@@H](n2cc(F)c(=O)[nH]c2=O)[C@H](O)[C@@H]1O [DOXIFLURIDINE]	6.7 mL/min/kg
CCOc1ccc(/C=C2\NCCc3cc(OCC)c(OCC)cc32)cc1OCC [DROTAVERINE]	3.5 mL/min/kg
CCN(CC)C(=O)/C(C#N)=C/c1cc(O)c(O)c([N+](=O)[O-])c1 [ENTACAPONE]	5.3 mL/min/kg
CC(C)(C)NC(=O)[C@H]1CC[C@H]2[C@@H]3CC=C4C=C(C(=O)O)CC[C@]4(C)[C@H]3CC[C@]12C [EPRISTERIDE]	0.3 mL/min/kg

Compound	CL
CCCCc1ncc(/C=C(\Cc2cccs2)C(=O)O)n1Cc1ccc(C(=O)O)cc1 [EPROSARTAN]	1.2 mL/min/kg
C[C@]12CC[C@@H]3c4ccc(OC(=O)N(CCCl)CCCl)cc4CC[C@H]3[C@@H]1CC[C@@H]2OP(=O)(O)O [ESTRAMUSTINE PHOSPHATE]	0.9 mL/min/kg
CCNCC(O)c1cccc(O)c1 (stereo not given) [ETILEFRINE]	10 mL/min/kg
C[C@@H]1O[C@@H]1P(=O)(O)O [FOSFOMYCIN]	0.02 mL/min/kg
CN[C@@H]1CCc2[nH]c3ccc(C(N)=O)cc3c2C1 [FROVATRIPTAN]	1.5 mL/min/kg
COc1c(N2CCNC(C)C2)c(F)cc2c(=O)c(C(=O)O)cn(C3CC3)c12 (stereo not given) [GATIFLOXACIN]	0.5 mL/min/kg
CN1C2CCCC1CC(NC(=O)c1nn(C)c3ccccc13)C2 (stereo not given) [GRANISETRON]	8.1 mL/min/kg
N=C(N)NC(=O)Cc1c(Cl)cccc1Cl [GUANFACINE]	2.9 mL/min/kg
CCC(C)n1ncn(-c2ccc(N3CCN(c4ccc(OCC5COC(Cn6cncn6)(c6ccc(Cl)cc6Cl)O5)cc4)CC3)cc2)c1=O (stereo not given) [ITRACONAZOLE]	5.1 mL/min/kg
Nc1nc2c(c(=O)[nH]1)N(C=O)C(CNc1ccc(C(=O)N[C@@H](CCC(=O)O)C(=O)O)cc1)CN2 (stereo not given in full) [LEUCOVORIN]	4.5 mL/min/kg
CC(=O)NC[C@H]1CN(c2ccc(N3CCOCC3)c(F)c2)C(=O)O1 [LINEZOLID]	1.2 mL/min/kg
O=C1Nc2ccc(Cl)cc2C(c2ccccc2Cl)=NC1O (stereo not given) [LORAZEPAM]	1 mL/min/kg
CN1C(=O)C(O)N=C(c2ccccc2Cl)c2cc(Cl)ccc21 (stereo not given) [LORMETAZEPAM]	4 mL/min/kg
CN(Cc1cnc2nc(N)nc(N)c2n1)c1ccc(C(=O)N[C@@H](CCC(=O)O)C(=O)O)cc1 [METHOTREXATE]	0.4 mL/min/kg
C[C@](N)(Cc1ccc(O)c(O)c1)C(=O)O [METHYLDOPA]	1.4 mL/min/kg
CCN(CC)CCNC(=O)c1cc(Cl)c(N)cc1OC [METOCLOPRAMIDE]	4.6 mL/min/kg
Cc1ccccc1N1C(=O)c2cc(S(N)(=O)=O)c(Cl)cc2NC1C (stereo not given) [METOLAZONE]	0.3 mL/min/kg
Cc1[nH]c(=O)c(C#N)cc1-c1ccncc1 [MILRINONE]	1.2 mL/min/kg
COc1nc(C)nc(Cl)c1N=C1NCCN1 [MOXONIDINE]	3.5 mL/min/kg
CC(C)[C@H]1CC[C@H](C(=O)N[C@H](Cc2ccccc2)C(=O)O)CC1 [NATEGLINIDE]	1.7 mL/min/kg
COCCOC(=O)C1=C(C)NC(C)=C(C(=O)OC(C)C)C1c1cccc([N+](=O)[O-])c1 (stereo not given) [NIMODIPINE]	15 mL/min/kg
COC(=O)C1=C(C)NC(C)=C(C(=O)OCC(C)C)C1c1ccccc1[N+](=O)[O-] (stereo not given) [NISOLDIPINE]	15 mL/min/kg
CC1COc2c(N3CCN(C)CC3)c(F)cc3c(=O)c(C(=O)O)cn1c23 (stereo not given) [OFLOXACIN]	0.8 mL/min/kg
CCC(CC)O[C@@H]1C=C(C(=O)O)C[C@H](N)[C@H]1NC(C)=O [OSELTAMIVIR CARBOXYLATE]	0.3 mL/min/kg
COc1ccc(Cc2nccc3cc(OC)c(OC)cc23)cc1OC [PAPAVERINE]	11 mL/min/kg

Compound	CL
C[C@H](/C=C/[C@H](C)C(C)(C)O)[C@H]1CC[C@H]2/C(=C/C=C3C[C@@H](O)C[C@H](O)C3)CCC[C@]12C [PARICALCITOL]	0.9 mL/min/kg
CC1(C)S[C@@H]2[C@H](NC(=O)COc3ccccc3)C(=O)N2[C@H]1C(=O)O [PENICILLIN V]	5.1 mL/min/kg
CC(=O)Nc1ccc(OCC(O)CNC(C)C)cc1 (stereo not given) [PRACTOLOL]	0.3 mL/min/kg
CC[C@H](C)C(=O)O[C@H]1C[C@H](O)C=C2C=C[C@H](C)[C@H](CC[C@@H](O)C[C@@H](O)CC(=O)O)[C@H]21 [PRAVASTATIN]	7.7 mL/min/kg
CC(C)NCC(O)COc1cccc2ccccc12 (stereo not given) [PROPRANOLOL]	10.8 mL/min/kg
CN(C)C(=O)Oc1ccc[n+](C)c1 [PYRIDOSTIGMINE]	2.4 mL/min/kg
COCCCOc1ccnc(C[S+]([O-])c2nc3ccccc3[nH]2)c1C (stereo not given) [RABEPRAZOLE]	4 mL/min/kg
CO[C@H]1/C=C/O[C@@]2(C)Oc3c(C)c(O)c4c(O)c(c(/C=N/N5CCN(C)CC5)c(O)c4c3C2=O)NC(=O)/C(C)=C\C=C\[C@H](C)[C@H](O)[C@@H](C)[C@@H](O)[C@@H](C)[C@H](OC(C)=O)[C@@H]1C [RIFAMPIN]	1.3 mL/min/kg
O=P(O)(O)C(O)(Cc1cccnc1)P(=O)(O)O [RISEDRONIC ACID]	0.2 mL/min/kg
CN(CCOc1ccc(CC2SC(=O)NC2=O)cc1)c1ccccn1 (stereo not given) [ROSIGLITAZONE]	0.7 mL/min/kg
C#CCN(C)[C@H](C)Cc1ccccc1 [SELEGILINE]	19.8 mL/min/kg
CCN(CC)CCNC(=O)c1ccc(NS(C)(=O)=O)cc1 [SEMATILIDE]	0.2 mL/min/kg
N[C@@H]1CN(c2c(F)cc3c(=O)c(C(=O)O)cn([C@@H]4C[C@@H]4F)c3c2Cl)CC12CC2 [SITAFLOXACIN ANHYDROUS]	0.9 mL/min/kg
N[C@@H](CC(=O)N1CCn2c(nnc2C(F)(F)F)C1)Cc1cc(F)c(F)cc1F [SITAGLIPTIN]	1.3 mL/min/kg
C=CC[C@@H]1/C=C(\C)C[C@H](C)C[C@H](OC)[C@H]2O[C@@](O)(C(=O)C(=O)N3CCCC[C@H]3C(=O)O[C@H](/C(C)=C/[C@@H]3CC[C@@H](O)[C@H](OC)C3)[C@H](C)[C@@H](O)CC1=O)[C@H](C)C[C@@H]2OC [TACROLIMUS ANHYDROUS]	0.7 mL/min/kg
CC(C)(C)NCC(O)COc1ccc(NC(=O)NC2CCCCC2)cc1 (stereo not given) [TALINOLOL]	2.3 mL/min/kg
CC(C)(C)NCC(O)c1cc(O)cc(O)c1 (stereo not given) [TERBUTALINE]	1.2 mL/min/kg
CN(C)[C@@H]1C(O)=C(C(N)=O)C(=O)[C@@]2(O)C(O)=C3C(=O)c4c(O)cccc4[C@@](C)(O)[C@H]3C[C@@H]12 [TETRACYCLINE]	0.6 mL/min/kg
CC(C)(C)NC[C@H](O)COc1nsnc1N1CCOCC1 [TIMOLOL]	7.1 mL/min/kg
Cc1cccc(C)c1NC(=O)C(C)N (stereo not given) [TOCAINIDE]	1.4 mL/min/kg
Cc1ccc(O)c([C@H](CCN(C(C)C)C(C)C)c2ccccc2)c1 [TOLTERODINE]	8.4 mL/min/kg
CN[C@H](CC(C)C)C(=O)N[C@H]1C(=O)N[C@@H](CC(N)=O)C(=O)N[C@H]2C(=O)N[C@H]3C(=O)N[C@H](C(=O)N[C@H](C(=O)O)c4cc(O)cc(O)c4-c4cc3ccc4O)[C@H](O)c3ccc(c(Cl)c3)Oc3cc2cc(c3O[C@@H]2O[C@H](CO)[C@@H](O)[C@H](O)[C@H]2O[C@H]2C[C@](C)(N)[C@H](O)[C@H](C)O2)Oc2ccc(cc2Cl)[C@H]1O [VANCOMYCIN]	0.3 mL/min/kg
CC[C@]1(O)C[C@@H]2CN(CCc3c([nH]c4ccccc34)[C@@](C(=O)OC)(c3cc4c(cc3OC)N(C)[C@H]3[C@@](O)(C(=O)OC)[C@H](OC(C)=O)[C@]5(CC)C=CCN6CC[C@]43[C@@H]65)C2)C1 [VINBLASTINE]	0.5 mL/min/kg
CN(C)CCc1c[nH]c2ccc(C[C@H]3COC(=O)N3)cc12 [ZOLMITRIPTAN]	4.5 mL/min/kg
CN1CCN(C(=O)OC2c3nccnc3C(=O)N2c2ccc(Cl)cn2)CC1 (stereo not given) [ZOPICLONE]	3.2 mL/min/kg

Source: ChEMBL document CHEMBL1156824, “Physicochemical space for optimum oral bioavailability: contribution of human intestinal absorption and first-pass elimination” (J Med Chem, 2010)
